Source: patent publication US8865675B2, “Compositions and methods for silencing apolipoprotein B” (Protiva Biotherapeutics, Inc., priority 2010, dated 2014)

Columns and labels:
liver ApoB mRNA = experiment: Liver ApoB mRNA knockdown after IV SNALP administration, branched DNA (QuantiGene) assay relative to GAPDH; type: in vivo, Balb/c mice; conditions: for KD50 compared to SNALP containing the C2K benchmark cationic lipid: 48 h (FIG. 2, FIG. 3); for ApoB silencing activity compared to SNALP containing C2K when administered at the same dose: 0.033 or 0.05 mg/kg IV, 48 h (Table 6); for ApoB knockdown relative to PBS control (%): 1:57 SNALP with ApoB-10164 siRNA, ApoB:GAPD, 48 h, n = 3
Method: (§1) For dose response studies, SNALP formulations were administered by IV injection at 0.01 mg/kg, 0.033 mg/kg, or 0.1 mg/kg into female Balb/c mice (n=3 per group). Liver ApoB mRNA levels were evaluated at 48 hours after SNALP administration by a branched DNA assay (QuantiGene assay) to assess ApoB mRNA relative to the housekeeping gene GAPDH.
as §1, with “Each” for “For dose response studies,”, “formulation (6:1 L:D) was” for “formulations were”, “intravenous (IV)” for “IV”, “at” for “at 0.01 mg/kg, 0.033 mg/kg, or”
SNALP formulations were administered by IV injection at 0.05 mg/kg into female Balb/c mice (n=3 per group). Liver ApoB mRNA levels were evaluated at 48 hours after SNALP administration by a branched DNA assay (QuantiGene assay) to assess ApoB mRNA relative to the housekeeping gene GAPDH.
For these dose response studies, SNALP formulations were administered by IV injection at 0.05, 0.10, or 0.25 mg/kg for DLinDMA and at 0.01, 0.025, or 0.05 mg/kg for C2K or MC3 into female Balb/c mice (n=4 per group). Liver ApoB mRNA levels were evaluated at 48 hours after SNALP administration (Error bars=SD).
SNALP formulations were administered by IV injection at 0.033 mg/kg or at 0.05 mg/kg into Balb/c mice (n=3 per group). Liver ApoB mRNA levels were evaluated at 48 hours after SNALP administration by a branched DNA assay (QuantiGene assay) to assess ApoB mRNA relative to the housekeeping gene GAPDH.

[1] = Tolerability assessments of SNALP in mice (liver enzymes, body weight, neutrophil to lymphocyte ratio etc.); type: in vivo
[2] = 1:57 SNALP, 0.01, 0.033 or 0.1 mg/kg IV, female Balb/c mice, 48 h (FIG. 1, FIG. 3)
[3] = 1:57 SNALP, 0.01, 0.033 or 0.1 mg/kg IV, female Balb/c mice

In the case of `CCCCC/C=C\C/C=C\CCCCCCCCC(CCCCCCCC/C=C\C/C=C\CCCCC)OC(=O)CCCN(C)C` [Compound 1, (6Z,9Z,28Z,31Z)-heptatriaconta-6,9,28,31-tetraen-19-yl 4-(dimethylamino)butanoate], the “potency versus the corresponding DLinDMA or C2K SNALP formulations, comparison of KD50 values” (liver ApoB mRNA; 1:57 SNALP containing siApoB-8 or siApoB-10, female Balb/c mice, 48 h (FIG. 6)) is reported as “more potent”, the “ApoB silencing activity compared to SNALP containing the C2K benchmark cationic lipid” value (liver ApoB mRNA; [2]) is reported as “improved ApoB silencing activity” and the “KD50 compared to SNALP containing the C2K benchmark cationic lipid” value (liver ApoB mRNA; [3]) is reported as “substantially lower KD50 values”. The “ApoB silencing activity compared to SNALP containing C2K when administered at the same dose” value (liver ApoB mRNA; 1:57 SNALP, Balb/c mice) was “unexpectedly improved ApoB silencing activity” and the “potency in silencing ApoB expression in vivo compared to SNALP containing DLin-C2K-DMA (C2K) or DLinDMA” value (liver ApoB mRNA; 1:57 lipid particle) was “unexpectedly more potent”.

In the case of `CC/C=C\C/C=C\C/C=C\CCCCCCCCC(CCCCCCCC/C=C\C/C=C\C/C=C\CC)OC(=O)CCCN(C)C` [Compound 4, LenMC3], the “ApoB silencing activity compared to SNALP containing the C2K benchmark cationic lipid” value (liver ApoB mRNA; [2]) is reported as “improved ApoB silencing activity”, the “KD50 compared to SNALP containing the C2K benchmark cationic lipid” value (liver ApoB mRNA; [3]) is reported as “substantially lower KD50 values” and the “ApoB silencing activity compared to SNALP containing C2K when administered at the same dose” value (liver ApoB mRNA; 1:57 SNALP, Balb/c mice) is reported as “unexpectedly improved ApoB silencing activity”.

With `CCCCC/C=C\C/C=C\C/C=C\CCCCCC(CCCCC/C=C\C/C=C\C/C=C\CCCCC)OC(=O)CCCN(C)C` [Compound 8, γ-LenMC3] the “ApoB silencing activity compared to SNALP containing the C2K benchmark cationic lipid” value (liver ApoB mRNA; [2]) was “improved ApoB silencing activity”, the “KD50 compared to SNALP containing the C2K benchmark cationic lipid” value (liver ApoB mRNA; [3]) was “substantially lower KD50 values” and the “ApoB silencing activity compared to SNALP containing C2K when administered at the same dose” value (liver ApoB mRNA; 1:57 SNALP, Balb/c mice) was “unexpectedly improved ApoB silencing activity”.

In the case of `CCCCC/C=C\C/C=C\CCCCCCCCC(CCCCCCCC/C=C\C/C=C\CCCCC)OC(=O)N(C)CCCN(C)C` [Compound 10, MC3MC], the “ApoB knockdown relative to PBS control (%)” value (liver ApoB mRNA; 0.033 mg/kg IV, Balb/c mice) is reported as −50%.

In the case of `CCCCC/C=C\C/C=C\CCCCCCCCC(CCCCCCCC/C=C\C/C=C\CCCCC)OCCCN(C)C` [Compound 13, 3-((6Z,9Z,28Z,31Z)-heptatriaconta-6,9,28,31-tetraen-19-yloxy)-N,N-dimethylpropan-1-amine], the “ApoB silencing activity compared to SNALP containing the C2K benchmark cationic lipid” value (liver ApoB mRNA; 1:57 SNALP, 0.05 mg/kg IV, female Balb/c mice, 48 h (FIG. 5)) is reported as “unexpectedly improved ApoB silencing activity” and the “ApoB silencing activity compared to SNALP containing C2K when administered at the same dose” value (liver ApoB mRNA; 1:57 SNALP, Balb/c mice) is reported as “unexpectedly improved ApoB silencing activity”.

With `CCCCC/C=C\C/C=C\CCCCCCCCC(CCCCCCCC/C=C\C/C=C\CCCCC)OCCCCN(C)C` [Compound 15, MC4 Ether] the “ApoB silencing activity compared to SNALP containing C2K when administered at the same dose” value (liver ApoB mRNA; 1:57 SNALP, Balb/c mice) was “unexpectedly improved ApoB silencing activity”.

With `CCCCC/C=C\C/C=C\CCCCCCCCCC(CCCCCCC/C=C\C/C=C\CCCCC)OC(=O)N(CCCCCC)CCCN(C)C` (stereo not shown) [Compound 27, (6Z,9Z,28Z,31Z)-heptatriaconta-6,9,28,31-tetraen-18-yl 3-(dimethylamino)propyl(hexyl)carbamate] the “ApoB silencing activity compared to SNALP containing C2K when administered at the same dose” value (liver ApoB mRNA; 1:57 SNALP, Balb/c mice) was “unexpectedly improved ApoB silencing activity”.

In the case of `CC/C=C\CCCN(CCCN(C)C)C(=O)OC(CCCCCCC/C=C\C/C=C\CCCCC)CCCCCCCCC/C=C\C/C=C\CCCCC` (stereo not shown) [Compound 28, (6Z,9Z,28Z,31Z)-heptatriaconta-6,9,28,31-tetraen-18-yl 3-(dimethylamino)propyl((Z)-hept-4-enyl)carbamate], the “ApoB silencing activity compared to SNALP containing C2K when administered at the same dose” value (liver ApoB mRNA; 1:57 SNALP, Balb/c mice) is reported as “unexpectedly improved ApoB silencing activity”.

With `CC/C=C\C/C=C\C/C=C\CCCCCCCCC(CCCCCCCC/C=C\C/C=C\C/C=C\CC)OCCCCN(C)C` [Compound 35, 4-((3Z,6Z,9Z,28Z,31Z,34Z)-heptatriaconta-3,6,9,28,31,34-hexaen-19-yloxy)-N,N-dimethylbutan-1-amine] the “ApoB silencing activity compared to SNALP containing C2K when administered at the same dose” value (liver ApoB mRNA; 1:57 SNALP, Balb/c mice) was “unexpectedly improved ApoB silencing activity”.

In the case of `CCC1CC1CC1CC1CC1CC1CCCCCCCCC1(CCCCCCCCC2CC2CC2CC2CC2CC2CC)OCC(CCN(C)C)O1` (stereo not shown) [Compound 46, CP-DLen-C2K-DMA], the “potency in silencing ApoB mRNA expression” value (liver ApoB mRNA; 1:57 SNALP, 0.01, 0.033 or 0.1 mg/kg IV, female Balb/c mice, 48 h (FIG. 3)) is reported as “considerable potency”, the “body weight loss compared to mice administered SNALP containing C2K” value ([1]; mouse, in vivo) is reported as “less body weight loss” and the “increase in liver enzyme levels compared to mice administered SNALP containing C2K” value ([1]; mouse, in vivo) is reported as “lower increase in liver enzyme levels”. The “neutrophil to lymphocyte ratio compared to mice administered SNALP containing C2K” value ([1]; mouse, in vivo) was “more favorable neutrophil to lymphocyte ratio” and the “toxicity profile compared to SNALP containing C2K” value ([1]; various tolerability assessments in vivo) was “unexpectedly more favorable toxicity profile”.

For “(6Z,9Z,28Z,31Z)-heptatriaconta-6,9,28,31-tetraen-18-yl 2-(dimethylamino)ethyl(ethyl)carbamate [Compound 29]”, the “ApoB knockdown relative to PBS control (%)” value (liver ApoB mRNA; 0.05 mg/kg IV, Balb/c mice) was −59%.

In the case of “siApoB-10: APOB siRNA of sense strand SEQ ID NO: 4 and antisense strand SEQ ID NO: 11 with 2′OMe nucleotides (sense AGNGNCANCACACNNAANACC; antisense UAUUCAGUGUGAUGACACUUG; 2'OMe nucleotides, chemistry not fully specified)”, the “silencing activity of more highly 2′OMe-modified APOB siRNA relative to siApoB-8” value (liver ApoB mRNA; modifications increased from 7 in siApoB-8 to 13 in siApoB-10, 1:57 SNALP, Balb/c mice, 48 h (FIG. 6)) is reported as “does not decrease activity”.
